Data reported in PubChem BioAssay AID2060498 (Molecular Pharmacology Branch, DTP, NCI, 2025).
pIC50: −log10 of the molar value.

System: 171881-019-R-J1-PDC tumor spheroids, viability
Assay: Anticancer human tumor 171881-019-R-J1-PDC patient-derived invasive breast carcinoma cell line growth inhibition [GQUAD]
Settings: spheroids with HUVEC and MSC; for pIC50: curve of first compound; for viability, T/C: stronger effect = lower value
Text: DNA G-quadruplex Stabilizer Agents in Combinations in Complex Spheroids
A high-throughput screen of multi-cell type tumor spheroids was designed to identify active combinations of DNA G-quadruplex stabilizer agents and targeted small molecules. Complex spheroids include a stromal component modeled by human endothelial cells (HUVEC) and fibroblasts modeled by human mesenchymal stem cells (MSCs). The concentration ranges selected for each drug and investigational agent were based upon clinically achievable concentrations if the clinical Cmax of the agent was known.
Compounds. The drugs and investigational agents: pidnarulex (CX-5461; NSC782164), APTO-253 (NSC789042), BRACO-19 (NSC847499), peposertib (NSC802822), ceralasertib (NSC780249), elimusertib (NSC800525), camonsertib (NSC841442), AZD-1390 (NSC803789), olaparib (NSC753686), talazoparib (NSC767125), ART-558 (NSC835418), sotorasib (NSC818433), MRTX-1133 (NSC836407), SN-38 (NSC673596), topotecan (NSC609699), etoposide (NSC141540), doxorubicin (NSC123127), gemcitabine (NSC613327), 5-fluorouracil (NSC19893), paclitaxel (NSC125973), vemurafenib (NSC761431), panobinostat (NSC761190), R-306465 (JNJ-16241199; NSC773264), adavosertib (NSC754352), TP-3654 (NSC805149), carboplatin (NSC241240), KSQ-4279 (NSC840948), and staurosporine (NSC755774) were obtained from the National Cancer Institute (NCI) Developmental Therapeutics Program Chemical Repository (34). The FDA-approved anticancer drug set is available from the NCI Developmental Therapeutics Program. […] The stock solutions were prepared in dimethyl sulfoxide (DMSO, Sigma-Aldrich, St. Louis, MO, cat. D2650) at 800-fold the tested concentration and stored at -70 degrees C prior to their use. All drugs and investigational agents were tested over a range starting from a high concentration at or near the clinical Cmax and decreasing in half-log increments. If the clinical Cmax for an agent had not been determined, the highest concentration tested was 10 microM.
2.3 Cell Culture. All cells were maintained in an incubator at 37 degrees C and 5% CO2 with 95% humidity. The PDC lines were cultured according to standard operating procedures established by the NCI PDMR. All PDCs were thawed and cultured in Matrigel-coated flasks prepared with a working solution of 1X Ham's F-12 nutrient mix, without supplementation (Invitrogen, cat. 11765054), 100 U/mL penicillin-streptomycin (Invitrogen, cat. 15140122), and 2.5% Matrigel (Corning Inc., cat. 354248) for the first three passages. The 857933-349-R-J2-PDC line was cultured in 6C/Colon 1B media, which includes advanced DMEM/F-12 (Thermo Fisher Scientific, cat. 12634028), 10 mM HEPES (Thermo Fisher Scientific, cat. 15630080), 1X GlutaMAX supplement (Thermo Fisher Scientific, cat. 35050061), 0.1 mg/mL primocin (InvivoGen, cat. ant-pm-2), 10% defined fetal bovine serum, heat inactivated (HyClone Laboratories Inc., cat. SH30070.03HI), 50% L-WRN conditioned media (ATCC, cat. CRL-3276), 1.25 mM N-Acetyl-L-cysteine (Sigma-Aldrich, cat. A9165), 10 mM nicotinamide (Sigma-Aldrich, cat. N0636), 1X B-27 supplement (Thermo Fisher Scientific, cat. 17504044), 1X N-2 supplement (Thermo Fisher Scientific, cat. 17502048), 10 microM Y-27632 dihydrochloride (Tocris Bioscience, cat. 1254), and 50 ng/mL human EGF recombinant protein (Thermo Fisher Scientific, cat. PHG0311). The 485176-168-R4-J1-PDC line was cultured in Panc media, which includes all 6C/Colon 1B media components plus 100 ng/mL human FGF-10 (Thermo Fisher Scientific, cat. 100-26), 500 nM SB-431542 (Selleckchem, cat. S1067), and gastrin (Tocris, cat. 3006).
[…]
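Note: spheroids exposed to compounds for 7 days.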
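Throughout, for viability, T/C: 100% = DMSO vehicle control viability.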

Cc1[nH]c2ccccc2c1CCNCc1ccc(/C=C/C(=O)NO)cc1 + Cc1[nH]c2ccc(F)cc2c1-c1nc2c3cccnc3c3ncccc3c2[nH]1
pIC50 (second compound 0.0316 µM): 7.22 | pIC50 (second compound 0.1 µM): 7.19 | pIC50 (second compound 0.316 µM): 7.31 | pIC50 (second compound 1 µM): 7.49 | pIC50 (second compound 3.16 µM): > 9.00 | pIC50 (second compound 10 µM): > 9.00 | viability, T/C (second compound 0.0316 µM, first compound 0.000999 µM): 109% | viability, T/C (second compound 0.0316 µM, first compound 0.00316 µM): 107% | viability, T/C (second compound 0.0316 µM, first compound 0.00999 µM): 94.6% | viability, T/C (second compound 0.0316 µM, first compound 0.0316 µM): 84.6% | viability, T/C (second compound 0.0316 µM, first compound 0.0999 µM): 22.5% | viability, T/C (second compound 0.0316 µM, first compound 0.316 µM): 0.66% | viability, T/C (second compound 0.1 µM, first compound 0.000999 µM): 90.7% | viability, T/C (second compound 0.1 µM, first compound 0.00316 µM): 98.2% | viability, T/C (second compound 0.1 µM, first compound 0.00999 µM): 99.5% | viability, T/C (second compound 0.1 µM, first compound 0.0316 µM): 91.7% | viability, T/C (second compound 0.1 µM, first compound 0.0999 µM): 24.8% | viability, T/C (second compound 0.1 µM, first compound 0.316 µM): 0.58% | viability, T/C (second compound 0.316 µM, first compound 0.000999 µM): 91.7% | viability, T/C (second compound 0.316 µM, first compound 0.00316 µM): 72.2% | viability, T/C (second compound 0.316 µM, first compound 0.00999 µM): 85.5% | viability, T/C (second compound 0.316 µM, first compound 0.0316 µM): 63.3% | viability, T/C (second compound 0.316 µM, first compound 0.0999 µM): 27% | viability, T/C (second compound 0.316 µM, first compound 0.316 µM): 0.34% | viability, T/C (second compound 1 µM, first compound 0.000999 µM): 66.8% | viability, T/C (second compound 1 µM, first compound 0.00316 µM): 55.9% | viability, T/C (second compound 1 µM, first compound 0.00999 µM): 63.1% | viability, T/C (second compound 1 µM, first compound 0.0316 µM): 50.3% | viability, T/C (second compound 1 µM, first compound 0.0999 µM): 20.4% | viability, T/C (second compound 1 µM, first compound 0.316 µM): 0.35% | viability, T/C (second compound 3.16 µM, first compound 0.000999 µM): 9.69% | viability, T/C (second compound 3.16 µM, first compound 0.00316 µM): 7.8% | viability, T/C (second compound 3.16 µM, first compound 0.00999 µM): 7.35% | viability, T/C (second compound 3.16 µM, first compound 0.0316 µM): 5.79% | viability, T/C (second compound 3.16 µM, first compound 0.0999 µM): 1.55% | viability, T/C (second compound 3.16 µM, first compound 0.316 µM): 0.52% | viability, T/C (second compound 10 µM, first compound 0.000999 µM): 43.6% | viability, T/C (second compound 10 µM, first compound 0.00316 µM): 46.2% | viability, T/C (second compound 10 µM, first compound 0.00999 µM): 41.6% | viability, T/C (second compound 10 µM, first compound 0.0316 µM): 46.7% | viability, T/C (second compound 10 µM, first compound 0.0999 µM): 13.9% | viability, T/C (second compound 10 µM, first compound 0.316 µM): 0.41%
